Experimental data: the Deep4Chem optical property database
“And” between values parts separate entries of the source, which are not always exact repeats. Equal values may be shown once.

Assay: solvent given as SMILES
Details: in C1CCCCC1

Row | emission maximum [nm] | Structure (SMILES)
1 | 461 | C(=C\c1ncnc2ccccc12)/c1ccc(-c2ccc(N(c3ccccc3)c3ccccc3)cc2)cc1
2 | 345 | CCCC1(CCC)c2ccccc2-c2ccc(-c3ccc(OC)cc3)cc21
3 | 353 | COc1ccc(-c2ccc(-c3ccccc3)cc2)cc1
4 | 384 | O=C1Nc2ccccc2/C1=C/C(=O)c1ccc(O)cc1
5 | 509 | Cc1cc(C)c(B(c2c(C)cc(C)cc2C)c2cc3cc(N(C)C)c4ccccc4c3c3c2ccc2ccccc23)c(C)c1

Same assay, conditions: in C1CCOC1

Row | emission maximum [nm] | Structure (SMILES)
6 | 417 | Cc1ccc(C2CC(c3ccc(O)cc3)=NN2c2ccc(S(N)(=O)=O)cc2)cc1 (configuration not stated)
7 | 572 | C(=C\c1ncnc2ccccc12)/c1ccc(-c2ccc(N(c3ccccc3)c3ccccc3)cc2)cc1
8 | 417 | O=P1(c2ccccc2)C(c2ccccc2)=Cc2ccccc21 (configuration not stated)
9 | 556 | CN(C)c1ccc(/C=C/c2cnc3ccccc3n2)cc1
10 | 418 | COC(=O)c1c2ccccc2nc2ccccc12
11 | 498 | Cc1ccc(-c2ccc(-c3ccc(-c4ccc(C)cc4)cc3/C(=C(/c3ccccc3)c3cc(-c4ccc(C)cc4)ccc3-c3ccc(-c4ccc(C)cc4)cc3)c3ccccc3)cc2)cc1
12 | 418 | Cc1ccc(-c2cnc3nn4ccccc4c3c2)cc1
13 | 553 | Cc1cc(C)c(B(c2c(C)cc(C)cc2C)c2cc3cc(N(C)C)c4ccccc4c3c3c2ccc2ccccc23)c(C)c1

Row | Structure (SMILES) | emission maximum [nm]
14 | CC(C)(C)c1ccc2c(c1)c1cc(C(C)(C)C)ccc1n2-c1cccc(-c2nc(-c3cccc(-n4c5ccc(C(C)(C)C)cc5c5cc(C(C)(C)C)ccc54)c3)nc(-c3cccc(P(=O)(c4ccccc4)c4ccccc4)c3)n2)c1 | 514.41
15 | CC(C)(C)c1ccc(-c2nc3c4ccc(-c5cccc6ccccc56)cc4c4cc(-c5cccc6ccccc56)ccc4c3n2-c2ccc(C(C)(C)C)cc2)cc1 | 386
16 | CN(C)/C=N\c1ccc2c3c(cccc13)C(=O)c1ccccc1-2 | 586

Same assay, conditions: in C1COCCO1

Row | emission maximum [nm] | Structure (SMILES)
17 | 417 | Cc1ccc(C2CC(c3ccc(O)cc3)=NN2c2ccc(S(N)(=O)=O)cc2)cc1 (configuration not stated)
18 | 424 | CN(C)c1ncc2nc(C#N)n(Cc3ccccc3)c2n1
19 | 420 | COC(=O)c1c2ccccc2nc2ccccc12
20 | 489 | COc1ccc(C2=N/C(=C\c3ccc(C#N)cc3)C(=O)O2)cc1OC
21 | 399 | O=C1Nc2ccccc2/C1=C/C(=O)c1ccc(O)cc1

Row | Structure (SMILES) | emission maximum [nm]
22 | CC(C)(C)c1ccc(-c2nc3c4ccc(-c5cccc6ccccc56)cc4c4cc(-c5cccc6ccccc56)ccc4c3n2-c2ccc(C(C)(C)C)cc2)cc1 | 385

Same assay, conditions: in CC#N

Row | emission maximum | Structure (SMILES)
23 | 417 nm | Cc1ccc(C2CC(c3ccc(O)cc3)=NN2c2ccc(S(N)(=O)=O)cc2)cc1 (configuration not stated)
24 | 642 nm | C(=C\c1ncnc2ccccc12)/c1ccc(-c2ccc(N(c3ccccc3)c3ccccc3)cc2)cc1
25 | 440 nm | CN(C)c1ncc2nc(C#N)n(Cc3ccccc3)c2n1
26 | 390 nm | Cc1sc(Cl)cc1-c1nc(-c2ccc(Cl)cc2)[nH]c1-c1cc(Cl)sc1C
27 | 611 nm | CN(C)c1ccc(/C=C/c2cnc3ccccc3n2)cc1
28 | 422 nm | COC(=O)c1c2ccccc2nc2ccccc12
29 | 401 nm | O=C1Nc2ccccc2/C1=C/C(=O)c1ccc(O)cc1
30 | 565 nm | Cc1cc(C)c(B(c2c(C)cc(C)cc2C)c2cc3cc(N(C)C)c4ccccc4c3c3c2ccc2ccccc23)c(C)c1

Row | Structure (SMILES) | emission maximum
31 | CC(C)(C)c1ccc(-c2c3ccccc3c3n2[B-](F)(F)[N+]2=Cc4c5ccccc5c(-c5ccc(C(C)(C)C)cc5)n4[B-](F)(F)[N+]2=C3)cc1 | 601 nm
32 | CC(C)(C)c1ccc2c(c1)c1cc(C(C)(C)C)ccc1n2-c1cccc(-c2nc(-c3cccc(-n4c5ccc(C(C)(C)C)cc5c5cc(C(C)(C)C)ccc54)c3)nc(-c3cccc(P(=O)(c4ccccc4)c4ccccc4)c3)n2)c1 | 572.13 nm
33 | CC(C)(C)c1ccc(-c2nc3c4ccc(-c5cccc6ccccc56)cc4c4cc(-c5cccc6ccccc56)ccc4c3n2-c2ccc(C(C)(C)C)cc2)cc1 | 391 nm
34 | CCN(CC)c1ccc2cc(/C=C/C3=CC(/C=C/c4cc5ccc(N(CC)CC)cc5oc4=O)=[O+][B-](F)(F)O3)c(=O)oc2c1 | 725 nm
35 | COc1ccc(/C=C2\OC(=O)c3ccccc32)cc1 | 456.2 nm and 446 nm
36 | COc1nc(Cl)nc(Nc2ccc3c4c(cccc24)C(=O)c2ccccc2-3)n1 | 537.92 nm

Same assay, conditions: in CC(C)(C)O

Row | emission maximum [nm] | Structure (SMILES)
37 | 406 | O=C1Nc2ccccc2/C1=C/C(=O)c1ccc(O)cc1

Same assay, conditions: in CC(C)=O

Row | Structure (SMILES) | emission maximum [nm]
38 | CC(C)(C)c1ccc2c(c1)c1cc(C(C)(C)C)ccc1n2-c1cccc(-c2nc(-c3cccc(-n4c5ccc(C(C)(C)C)cc5c5cc(C(C)(C)C)ccc54)c3)nc(-c3cccc(P(=O)(c4ccccc4)c4ccccc4)c3)n2)c1 | 552.3
39 | CCN(CC)c1ccc2cc(/C=C/C3=CC(/C=C/c4cc5ccc(N(CC)CC)cc5oc4=O)=[O+][B-](F)(F)O3)c(=O)oc2c1 | 710
40 | COc1ccc(/C=C2\OC(=O)c3ccccc32)cc1 | 452.49
41 | COc1nc(Cl)nc(Nc2ccc3c4c(cccc24)C(=O)c2ccccc2-3)n1 | 526.87

Same assay, conditions: in CC(C)CO

Row | Structure (SMILES) | emission maximum [nm]
42 | COc1ccc(/C=C2\OC(=O)c3ccccc32)cc1 | 451.88

Same assay, conditions: in CC(C)O

Row | Structure (SMILES) | emission maximum [nm]
43 | Cc1ccc(C2CC(c3ccc(O)cc3)=NN2c2ccc(S(N)(=O)=O)cc2)cc1 (configuration not stated) | 423
44 | COc1ccc(/C=C2\OC(=O)c3ccccc32)cc1 | 459.77
45 | O=C1Nc2ccccc2/C1=C/C(=O)c1ccc(O)cc1 | 407
46 | COc1nc(Cl)nc(Nc2ccc3c4c(cccc24)C(=O)c2ccccc2-3)n1 | 570.13

Same assay, conditions: in CCCCCC

Row | Structure (SMILES) | emission maximum [nm]
47 | C[Si](C)(C)c1ccc2ccc3c([Si](C)(C)C)ccc4ccc1c2c43 | 380
48 | CC(C)(C)c1ccc(-c2c3ccccc3c3n2[B-](F)(F)[N+]2=Cc4c5ccccc5c(-c5ccc(C(C)(C)C)cc5)n4[B-](F)(F)[N+]2=C3)cc1 | 603
49 | CC(C)(C)c1ccc(-c2nc3c4ccc(-c5cccc6ccccc56)cc4c4cc(-c5cccc6ccccc56)ccc4c3n2-c2ccc(C(C)(C)C)cc2)cc1 | 381
50 | CN(C)/C=N\c1ccc2c3c(cccc13)C(=O)c1ccccc1-2 | 528
51 | O=C1Nc2ccccc2/C1=C/C(=O)c1ccc(O)cc1 | 382

Same assay, conditions: in CCCCCCC

Row | emission maximum [nm] | Structure (SMILES)
52 | 468 | CN(C)c1ccc(/C=C/c2cnc3ccccc3n2)cc1

Same assay, conditions: in CCCCCO

Row | emission maximum [nm] | Structure (SMILES)
53 | 432 | COC(=O)c1c2ccccc2nc2ccccc12

Same assay, conditions: in CCCCO

Row | emission maximum [nm] | Structure (SMILES)
54 | 431 | COC(=O)c1c2ccccc2nc2ccccc12
55 | 407 | O=C1Nc2ccccc2/C1=C/C(=O)c1ccc(O)cc1

Same assay, conditions: in CCCCOCCCC

Row | Structure (SMILES) | emission maximum [nm]
56 | CC(C)(C)c1ccc(-c2nc3c4ccc(-c5cccc6ccccc56)cc4c4cc(-c5cccc6ccccc56)ccc4c3n2-c2ccc(C(C)(C)C)cc2)cc1 | 383
57 | COc1nc(Cl)nc(Nc2ccc3c4c(cccc24)C(=O)c2ccccc2-3)n1 | 507.1

Same assay, conditions: in CCCO

Row | Structure (SMILES) | emission maximum [nm]
58 | COC(=O)c1c2ccccc2nc2ccccc12 | 430
59 | COc1ccc(/C=C2\OC(=O)c3ccccc32)cc1 | 460.83

Same assay, conditions: in CCN(CC)CC

Row | Structure (SMILES) | emission maximum [nm]
60 | CC(C)(C)c1ccc(-c2nc3c4ccc(-c5cccc6ccccc56)cc4c4cc(-c5cccc6ccccc56)ccc4c3n2-c2ccc(C(C)(C)C)cc2)cc1 | 382

Same assay, conditions: in CCO

Row | emission maximum [nm] | Structure (SMILES)
61 | 428 | Cc1ccc(C2CC(c3ccc(O)cc3)=NN2c2ccc(S(N)(=O)=O)cc2)cc1 (configuration not stated)
62 | 586 | COc1ccccc1-c1c2ccc(=[N+]3CCCCC3)cc-2oc2cc(N3CCCCC3)ccc12
63 | 437.06 | Cc1cc2cc3ccccc3cc2cn1
64 | 432 | COC(=O)c1c2ccccc2nc2ccccc12
65 | 539 | CCOC(=O)c1cc(C(=O)OCC)c2cc(NC)ccc2n1

Row | Structure (SMILES) | emission maximum [nm]
66 | CN(C)/C=N\c1ccc2c3c(cccc13)C(=O)c1ccccc1-2 | 634
67 | COc1ccc(/C=C2\OC(=O)c3ccccc32)cc1 | 459.35

Same assay, conditions: in CCOC(C)=O

Row | Structure (SMILES) | emission maximum [nm]
68 | Cc1ccc(C2CC(c3ccc(O)cc3)=NN2c2ccc(S(N)(=O)=O)cc2)cc1 (configuration not stated) | 415
69 | CC(C)(C)c1ccc(-c2nc3c4ccc(-c5cccc6ccccc56)cc4c4cc(-c5cccc6ccccc56)ccc4c3n2-c2ccc(C(C)(C)C)cc2)cc1 | 385
70 | CCN(CC)c1ccc2cc(/C=C/C3=CC(/C=C/c4cc5ccc(N(CC)CC)cc5oc4=O)=[O+][B-](F)(F)O3)c(=O)oc2c1 | 659
71 | CN(C)/C=N\c1ccc2c3c(cccc13)C(=O)c1ccccc1-2 | 586
72 | COc1ccc(/C=C2\OC(=O)c3ccccc32)cc1 | 438.6
73 | O=C1Nc2ccccc2/C1=C/C(=O)c1ccc(O)cc1 | 398
74 | COc1nc(Cl)nc(Nc2ccc3c4c(cccc24)C(=O)c2ccccc2-3)n1 | 520.02

Same assay, conditions: in CCOCC

Row | Structure (SMILES) | emission maximum [nm]
75 | CC(C)(C)c1ccc(-c2nc3c4ccc(-c5cccc6ccccc56)cc4c4cc(-c5cccc6ccccc56)ccc4c3n2-c2ccc(C(C)(C)C)cc2)cc1 | 382
76 | COc1ccc(/C=C2\OC(=O)c3ccccc32)cc1 | 434.03
77 | COc1nc(Cl)nc(Nc2ccc3c4c(cccc24)C(=O)c2ccccc2-3)n1 | 514.14
